≈ marks a conversion by molar mass, not a printed value.
What was measured:
Assay type in all cases: functional
Staphylococcus aureus = test: Antibacterial activity against Staphylococcus aureus by two-fold dilution method; settings: for MIC: Staphylococcus aureus
Cutibacterium acnes = test: Antibacterial activity against Propionibacterium acnes by two-fold dilution method
Pseudomonas aeruginosa = test: Antibacterial activity against Pseudomonas aeruginosa by two-fold dilution method
Escherichia coli = test: Antibacterial activity against Escherichia coli by two-fold dilution method
Candida albicans = test: […] activity against Candida albicans by two-fold dilution method; settings: for MIC: Candida albicans

Compound	-logMIC (Staphylococcus aureus)	MIC (Staphylococcus aureus) [µg/mL]	MIC (Cutibacterium acnes) [µg/mL]	MIC (Pseudomonas aeruginosa) [µg/mL]	MIC (Escherichia coli) [µg/mL]	-logMIC (Candida albicans)	MIC (Candida albicans) [µg/mL]
COC(=O)CCC[C@@H]1[C@H]2CCCN3CCC[C@@H](CN1C(=O)c1cc4ccc(Cl)cc4n1Cc1cc(C(C)(C)C)cc(C(C)(C)C)c1)[C@@H]23	1.032	0.093 (≈ 0.141 µM)	0.29 (≈ 0.439 µM)	0.466 (≈ 0.706 µM)	1.49 (≈ 2.25 µM)	-0.955	9.02 (≈ 13.7 µM)
O=C1CCC[C@@H]2[C@H]3CCCN4CCC[C@@H](CN12)[C@@H]34 [MATRINE]		7.43 (≈ 29.9 µM)	16 (≈ 64.3 µM)	6.73 (≈ 27.1 µM)	5.46 (≈ 22 µM)		8 (≈ 32.2 µM)

Source: ChEMBL document CHEMBL5579805, “Synthesis, antibacterial activity, and 3D-QASR studies of matrine-indole derivatives as potential antibiotics” (2024)
